Experimental data taken from patent US10548829B2, “Oral care compositions and methods of use” (priority 2016, dated 2020).

How the values were obtained:
S. gordonii/S. sobrinus = experiment: Growth inhibition (OD610), co-culture; format: cell-based, S. gordonii and S. sobrinus
Experimental: Further characterization was performed on planktonic oral microbes; Streptococcus sobrinus (Cariongenic—strain-SL1[CCM 6070, CNCTC 9/89] (ATCC cat. #33478), Streptococcus gordonii (Arginolytic—strain V288 (ATCC cat. #35105), Actinomyces viscosus) as well late colonizer (Gram −), pathogenic Aggregatibacter actinomycetemcomitans. All microbes were grown in their respective culture media: Streptococcus sobrinus and Streptococcus gordonii in BHI broth (BD, cat #237500), Aggregatibacter actinomycetemcomitans in BHI broth supplemented with 0.5% Yeast Extract (BD, cat #210941) and Actinomyces viscosus in Trypticase Soy Broth (BD, cat #211768) supplemented with 0.5% Yeast Extract (BD, cat #210941). Bacteria were cultured overnight in 37° C., 5% CO2 in approximately 20 ml of the appropriate culture broth. The following day, the OD610 was determined and solutions were diluted to 0.2 for the assay.
Test samples (Naringin, Naringin:Zinc complex and Naringin+Zinc Acetate (combination)) were prepared as a 100 mM stock solution followed by 2 fold serial dilution in 100% DMSO. Triclosan (positive control) was prepared as a 10% stock in 100% EtOH and 3 fold serial dilutions were done in 100% EtOH. […]
After approximately 12-13 hours of treatment, the plate was read at 610 nm using an Envision plate reader (PerkinElmer, Waltham, Mass.). The % inhibition relative to control was determined as follows: […]

[1] = system: A. actinomycetemcomitans/S. sobrinus; experiment: Growth inhibition (OD610), co-culture; format: cell-based, A. actinomycetemcomitans and S. sobrinus
[2] = system: EpiGingival™ tissue models; experiment: Tissue zinc uptake analysis; format: in vitro ADME; details: 2 minute treatment
Experimental: All samples were prepared in a final concentration of 1% DMSO in 7% of Propylene Glycol (PG). […] For the vehicle only control, 1% DMSO in 7% PG was used. All samples were equilibrated to 37° C. prior to testing.
Zinc uptake studies were performed using EpiGingival™ tissue models from MatTek Corporation. Briefly, EpiGingival™ tissue inserts were equilibrated overnight in 1 ml of the EpiGingival™ assay media (supplied by MatTek Corporation). For testing, working with one insert at a time, the insert was removed and placed inside a clean 6 well plate. Then, 1 ml of the test sample was carefully removed and introduced to the inside of the insert and allowed to incubate for 2 minutes. Next, the samples were removed using an aspirator and the tissue rinsed with 1 ml of warm water (37° C.). This was repeated for 2 more times for a total of 3 washes. At the end of the last wash making sure to remove as much of the water as possible, the tissue was disengaged from the insert with the tip of a sterile forceps, and transferred into a clean 15 ml Falcon tube. The process was repeated until all the tissues were treated. Experiments were performed three times with each test sample assayed in duplicate.
Digestion of Tissues: Briefly, 0.5 ml of a mixture of 7:3 HCl/HNO3 was introduced into a 15 ml Falcon tube containing one of the treated tissue samples and allowed to digest overnight. The following day, 4.5 ml of water was added to each of the digested tissue samples, thoroughly mixed and centrifuged at 4,000 RPM for 10 minutes at room temperature. The clear supernatant (4.5 ml) was transferred into a clean, labeled Falcon tube and submitted for analytical analysis of Zinc.
A one way ANOVA was done to determine the p value. A plot of the average zinc (ppm) against the various treatments was generated (see FIG. 19).

[3] = 0.5 mM (combination 0.5 mM total)
[4] = 1 mM complex or combination, 0.33 mM Zinc acetate

For `C[C@@H]1O[C@@H](O[C@H]2[C@H](Oc3cc(O)c4c(c3)O[C@H](c3ccc(O)cc3)CC4=O)O[C@H](CO)[C@@H](O)[C@@H]2O)[C@H](O)[C@H](O)[C@H]1O` [Naringin], the inhibition at 500 µM (S. gordonii/S. sobrinus; [3]) was -6.84 ± 1.19% and the inhibition at 500 µM [1, 3] was 0.33 ± 3.48%.

For `CC(=O)[O-].CC(=O)[O-].[Zn+2]` [Zinc Acetate alone, Zinc (II) Acetate], the “% Inhibition” value (S. gordonii/S. sobrinus; 0.175 mM) was 1.55 ± 0.24%, the “% Inhibition” value ([1]; 0.175 mM) was 6.58 ± 5.36% and the “Zn (ppm) Preparation 1 N1” value ([2]; 1 mM complex or combination (0.67 mM + 0.33 mM), 0.33 mM Zinc acetate) was 0.96 ppm. For the same compound, the “Zn (ppm) Preparation 1 N2” value [2, 4] was 0.92 ppm, the “Zn (ppm) Preparation 2 N1” value [2, 4] was 0.82 ppm and the “Zn (ppm) Preparation 2 N2” value [2, 4] was 0.81 ppm. For the same compound, the “Zn (ppm) Preparation 3 N1” value [2, 4] was 0.84 ppm, the “Zn (ppm) Preparation 3 N2” value [2, 4] was 0.85 ppm and the “Zn Ave (ppm)” value ([2]; average of three preparations in duplicate) was 0.87 ppm.
